{"source": "ChEMBL document CHEMBL1201862", "about": "“PubChem BioAssay data set” (2004)", "key": {"[1]": {"biological_target": "Eukaryotic translation initiation factor 4E (Mus musculus, UniProt P63073)", "sequence (P63073 whole entry)": "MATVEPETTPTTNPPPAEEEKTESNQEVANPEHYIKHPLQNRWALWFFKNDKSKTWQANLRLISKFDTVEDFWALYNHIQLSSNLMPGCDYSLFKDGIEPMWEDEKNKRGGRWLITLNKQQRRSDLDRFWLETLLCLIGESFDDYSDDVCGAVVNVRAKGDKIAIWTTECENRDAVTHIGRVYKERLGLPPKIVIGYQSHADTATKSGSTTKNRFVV", "assay": "blockers of eIF4G binding by eIF4E – biochemical, TR-FRET, dose response (AID 855);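 note: potency for disrupting eIF4E binding to eIF4GI seen as loss of FRET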", "assay_type": "functional"}, "[2]": {"biological_target": "T1, Short transient receptor potential channel 4 (Mus musculus, UniProt Q9QUQ5)", "T1 sequence (Q9QUQ5 whole entry)": "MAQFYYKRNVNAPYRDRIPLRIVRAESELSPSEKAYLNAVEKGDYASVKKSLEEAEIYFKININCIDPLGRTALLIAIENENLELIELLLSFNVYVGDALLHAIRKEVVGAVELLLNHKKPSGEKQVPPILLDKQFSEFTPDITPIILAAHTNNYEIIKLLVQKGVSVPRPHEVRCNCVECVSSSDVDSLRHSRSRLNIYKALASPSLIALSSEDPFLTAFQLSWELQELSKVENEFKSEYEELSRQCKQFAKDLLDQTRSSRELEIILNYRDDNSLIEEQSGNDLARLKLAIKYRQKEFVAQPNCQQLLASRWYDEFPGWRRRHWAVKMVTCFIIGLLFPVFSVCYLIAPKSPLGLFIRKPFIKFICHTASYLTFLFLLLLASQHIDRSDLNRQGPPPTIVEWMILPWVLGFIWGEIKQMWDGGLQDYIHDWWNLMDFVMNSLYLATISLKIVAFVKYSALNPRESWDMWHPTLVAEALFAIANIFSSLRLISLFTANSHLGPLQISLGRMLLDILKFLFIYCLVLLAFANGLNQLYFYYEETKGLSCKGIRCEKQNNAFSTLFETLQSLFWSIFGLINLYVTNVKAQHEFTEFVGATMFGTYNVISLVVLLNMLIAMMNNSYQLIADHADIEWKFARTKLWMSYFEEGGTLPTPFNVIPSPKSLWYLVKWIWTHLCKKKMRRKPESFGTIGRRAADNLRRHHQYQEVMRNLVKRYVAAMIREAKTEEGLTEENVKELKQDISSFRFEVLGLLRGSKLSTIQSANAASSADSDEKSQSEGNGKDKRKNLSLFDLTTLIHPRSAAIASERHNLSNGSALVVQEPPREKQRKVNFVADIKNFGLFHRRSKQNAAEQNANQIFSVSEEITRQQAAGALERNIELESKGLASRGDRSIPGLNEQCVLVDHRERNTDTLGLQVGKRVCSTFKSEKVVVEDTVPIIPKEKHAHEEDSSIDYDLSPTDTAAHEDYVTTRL", "assay": "calcium entry via TRPC4 opening agents – cell-based, HEK293 TRPC4/mu-opioid, Fluo-4 calcium, dose response (AID 434937)", "assay_type": "functional"}, "[3]": {"assay": "viability loss in CEM21 cells – cell-based, CellTiter-Glo luminescence, cherry-picked, cytotoxicity control for viral fusion inhibitor project, dose response (AID 652042);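 note: potency for signal decrease meaning cytotoxicity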", "assay_type": "functional"}, "[4]": {"assay": "blockers of HIV-1 envelope-mediated cell-cell fusion – cherry-pick, dose response (AID 652057)", "assay_type": "functional, cell-based"}, "[5]": {"assay": "blockers of HIV-1 ZM109 envelope-driven cell-cell fusion – HeLa effector, CEM target cells, luciferase, cherry-pick, dose response (AID 652058)", "assay_type": "functional, cell-based"}, "[6]": {"assay": "off-target signal loss in HeLa-CEM21 co-culture – HeLa F-luc CTL cells, cherry-picked, counter-screen for HIV-1 Env fusion inhibitor project, dose response (AID 652040);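 note: potency for signal decrease marking cytotoxic or nonspecific inhibition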", "assay_type": "functional, cell-based"}, "[7]": {"assay": "HIV-1 AD8 envelope cell-cell fusion blockers – cherry-pick, dose response (AID 652062);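 note: potency is for inhibitors of fusion seen as a drop in luminescence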", "assay_type": "functional, cell-based"}, "[8]": {"biological_target": "T2, DNA repair protein RAD52 homolog (Homo sapiens, UniProt P43351)", "T2 sequence (P43351 whole entry)": "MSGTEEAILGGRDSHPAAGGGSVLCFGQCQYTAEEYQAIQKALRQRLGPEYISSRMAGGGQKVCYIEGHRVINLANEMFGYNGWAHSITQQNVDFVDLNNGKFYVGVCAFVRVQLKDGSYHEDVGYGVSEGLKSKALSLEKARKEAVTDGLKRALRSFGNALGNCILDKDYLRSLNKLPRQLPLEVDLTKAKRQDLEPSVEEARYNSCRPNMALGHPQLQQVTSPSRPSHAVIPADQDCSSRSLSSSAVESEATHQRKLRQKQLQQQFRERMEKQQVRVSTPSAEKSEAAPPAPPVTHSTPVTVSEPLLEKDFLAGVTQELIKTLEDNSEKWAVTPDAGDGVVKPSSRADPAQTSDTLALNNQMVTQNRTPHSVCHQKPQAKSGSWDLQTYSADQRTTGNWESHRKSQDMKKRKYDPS", "assay_type": "functional, biochemical"}, "[9]": {"biological_target": "T1, Short transient receptor potential channel 4", "assay": "block of DAMGO-driven TRPC4 calcium entry – cell-based, HEK293 TRPC4/mu-opioid, Fluo-4 calcium, dose response (AID 434942);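 note: potency of inhibitors blocking the TRPC4 calcium response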", "assay_type": "functional"}, "Nonstructural protein 1": {"biological_target": "Nonstructural protein 1 (Influenza A virus, UniProt Q194T2)", "sequence (Q194T2 whole entry)": "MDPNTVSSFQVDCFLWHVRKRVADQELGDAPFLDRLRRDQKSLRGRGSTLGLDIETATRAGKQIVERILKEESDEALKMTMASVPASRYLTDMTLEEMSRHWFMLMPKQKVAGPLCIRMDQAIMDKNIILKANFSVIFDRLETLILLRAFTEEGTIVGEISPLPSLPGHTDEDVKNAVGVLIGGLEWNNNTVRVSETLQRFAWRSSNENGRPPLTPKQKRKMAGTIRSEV", "assay_type": "functional, Influenza A virus (A/California/07/2009(H1N1))"}, "[10]": {"assay": "HEK-293T cell viability reduction – luminescence, B-cell screen hits, cytotoxicity control for BCR NF-kB inhibitor project, dose response (AID 489021);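 note: HEK-293T cells carrying an NF-kB luciferase reporter; cells exposed to compound for about 14 hours before viability readout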", "assay_type": "functional, cell-based"}, "[11]": {"biological_target": "T3, Rac GTPase-activating protein 1 (Homo sapiens, UniProt Q9H0H5)", "T3 sequence (Q9H0H5 whole entry)": "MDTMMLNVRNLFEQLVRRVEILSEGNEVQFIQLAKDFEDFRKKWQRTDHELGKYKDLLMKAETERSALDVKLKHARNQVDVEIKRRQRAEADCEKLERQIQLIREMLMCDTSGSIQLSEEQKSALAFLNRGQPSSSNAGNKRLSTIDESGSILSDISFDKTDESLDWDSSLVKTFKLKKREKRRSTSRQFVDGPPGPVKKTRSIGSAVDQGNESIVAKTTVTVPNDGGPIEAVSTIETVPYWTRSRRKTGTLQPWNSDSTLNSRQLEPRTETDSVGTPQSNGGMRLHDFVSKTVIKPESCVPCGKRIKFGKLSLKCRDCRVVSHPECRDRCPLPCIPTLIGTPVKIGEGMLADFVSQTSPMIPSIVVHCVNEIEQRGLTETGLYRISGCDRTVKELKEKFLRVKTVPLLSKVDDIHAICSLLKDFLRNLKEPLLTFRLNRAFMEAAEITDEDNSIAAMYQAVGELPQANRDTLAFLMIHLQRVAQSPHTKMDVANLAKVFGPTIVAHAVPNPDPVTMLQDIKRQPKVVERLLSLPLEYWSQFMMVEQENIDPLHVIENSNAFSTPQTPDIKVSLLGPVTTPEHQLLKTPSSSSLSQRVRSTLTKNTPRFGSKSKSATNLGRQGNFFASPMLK", "assay": "blockers of MgcRacGAP-driven Rac1 GTP hydrolysis – biochemical, ADP Hunter fluorescence, primary and confirmatory, confirmation (AID 624330)", "assay_type": "functional"}}, "note": "Activity calls are given as the source filed them."}
{"smiles": "C=CCn1c(S)nnc1-c1ccco1", "values": [{"measurement": "IC50", "setting": "[1]", "value": "> 64 µM (inactive)"}]}
{"smiles": "COc1ccc(C(CCNCc2ccc(N(C)C)cc2)c2ccccc2)cc1", "note": "(centres undefined)", "values": [{"measurement": "EC50", "setting": "[2]", "value": "5.96 µM (active)"}, {"measurement": "AC50", "setting": "[3]", "value": "18.2 µM (active)"}, {"measurement": "AC50", "setting": "[4]", "value": "4.13 µM (active)"}, {"measurement": "AC50", "setting": "[5]", "value": "14.4 µM (active)"}, {"measurement": "AC50", "setting": "[6]", "value": "17.5 µM (active)"}, {"measurement": "AC50", "setting": "[7]", "value": "26.1 µM (active)"}]}
{"smiles": "CCOc1cc2c3c(c1)C(C)CC(C)(C)N3C(=O)C2=O", "note": "(centres undefined)", "values": [{"measurement": "AC50", "setting": "[3]", "value": "50.9 µM (active)"}, {"measurement": "AC50", "setting": "[4]", "value": "8.22 µM (active)"}, {"measurement": "AC50", "setting": "[5]", "value": "6.91 µM (active)"}, {"measurement": "AC50", "setting": "[6]", "value": "12.2 µM (active)"}, {"measurement": "AC50", "setting": "[7]", "value": "12.7 µM (active)"}]}
{"smiles": "COC(=O)Cn1cnc2c(Cl)nc(F)nc21", "values": [{"measurement": "AC50", "setting": "[3]", "value": "47.3 µM (active)"}, {"measurement": "AC50", "setting": "[4]", "value": "20.5 µM (active)"}, {"measurement": "AC50", "setting": "[6]", "value": "25.6 µM (active)"}]}
{"smiles": "COc1ccc(Cl)c2sc(N(CCN(C)C)C(=O)c3ccc4c(c3)OCCO4)nc12", "values": [{"measurement": "AC50", "setting": "[8]", "value": "9.01 µM (active)"}]}
{"smiles": "CCOc1ccccc1CN1CCN(Cc2cccc3nonc23)CC1CCO", "note": "(centres undefined)", "values": [{"measurement": "EC50", "setting": "[9]", "value": "5.31 µM (active)"}]}
{"smiles": "CC1(Oc2ccc3ccccc3c2)CCN(Cc2cccn2-c2nccs2)C1", "note": "(centres undefined)", "values": [{"measurement": "AC50", "setting": "[3]", "value": "51.9 µM (active)"}, {"measurement": "AC50", "setting": "[4]", "value": "10.9 µM (active)"}, {"measurement": "AC50", "setting": "[5]", "value": "12.3 µM (active)"}, {"measurement": "AC50", "setting": "[6]", "value": "14.7 µM (active)"}, {"measurement": "AC50", "setting": "[7]", "value": "29.4 µM (active)"}]}
{"smiles": "O=C(N/N=C/c1ccc(O)cc1O)c1ccncc1", "values": [{"measurement": "IC50", "setting": "Nonstructural protein 1", "value": "5.88 µM (active)"}]}
{"smiles": "CN(C)CCCNc1nc2cc(-c3cnn(Cc4ccccc4)c3)sc2c(=O)n1C", "values": [{"measurement": "AC50", "setting": "[8]", "value": "19.8 µM (active)"}]}
{"smiles": "C/C(CC(=O)N(C(C)C)C(C)C)=N\\NC(=O)COc1ccc(Cl)cc1Cl", "values": [{"measurement": "EC50", "setting": "[9]", "value": "13.3 µM (active)"}]}
{"smiles": "C=CCN1C(=O)CS/C1=N\\c1cccc(O)c1", "values": [{"measurement": "IC50", "setting": "[1]", "value": "> 64 µM (inactive)"}]}
{"smiles": "Oc1cc(O)cc(-c2cc3ccc(O)cc3o2)c1", "note": "[MORACIN M]", "values": [{"measurement": "IC50", "setting": "[10]", "value": "> 80 µM (inactive)"}, {"measurement": "IC50", "setting": "[11]", "value": "23 µM (active)"}]}
{"smiles": "O=C(N/N=C/c1ccccc1O)c1ccncc1", "note": "[SALINAZID]", "values": [{"measurement": "IC50", "setting": "Nonstructural protein 1", "value": "7.54 µM (active)"}]}
